Results published in patent US8658801B2, “Pesticides containing a bicyclic bisamide structure” (Syngenta Crop Protection, LLC, priority 2006, dated 2014).

Legend:
[1] = tested on: Spodoptera littoralis (Egyptian Cotton Leafworm); assay: Example B1: activity against Spodoptera littoralis, larvicide, feeding/residual contact, preventive (cotton leaf discs); format: in vivo; details: foliar, 72 h, 3 days after treatment, L1 larvae
[2] = tested on: Heliothis virescens (Tobacco Budworm); assay: Example B2: activity against Heliothis virescens, ovo-larvicide, feeding/contact, curative; format: in vivo; details: 96 h, 4 days incubation, eggs 0-24 h old
Method: Activity Against Heliothis virescens (Tobacco Budworm)
(Ovo-Larvicide, Feeding/Contact Activity, Curative)
Eggs (0-24 h old) are placed in 24-well microtiter plate on artificial diet and treated with test solutions by pipetting. After an incubation period of 4 days, samples are checked for egg mortality, larval mortality, and growth regulation.

[3] = tested on: Plutella xylostella (Diamond Back Moth); assay: Example B3: Plutella xylostella, larvicide, feeding/residual contact, preventive (artificial diet MTP); format: in vivo; details: 120 h, 5 days incubation, L2 larvae
Procedure, shortened: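 Artificial diet in multiwell plates treated with test solution, dried, then infested with 10–15 L2 larvae per well. After 5 days, larval mortality, antifeedant effect and growth regulation were scored.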

[4] = tested on: Diabrotica balteata (Corn Root Worm); assay: Example B4: Diabrotica balteata, larvicide, feeding/residual contact, preventive; format: in vivo; details: 120 h, 5 days incubation, L2 larvae
Procedure, shortened: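 Artificial diet treated with test solution, dried, then infested with 6-10 L2 larvae per well. Larval mortality, antifeedant effect and growth regulation checked after 5 days of incubation.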

[5] = tested on: Cydia pomonella (Codling Moth); assay: Example B8: activity against Cydia pomonella (paraffin-coated diet cubes); format: in vivo; details: 336 h, 14 days incubation at 26° C.
Method: Activity Against Cydia pomonella (Codling Moth)
Standard Cydia diet cubes (1.5 cm width) are pierced with a tooth-pick and are immersed in liquid paraffin (ca. 80° C.). After the paraffin coat has hardened, an aqueous emulsion containing 400 ppm of active ingredient is applied using a De Vilbis sprayer (25 ml, 1 bar). After the spray coating has dried, the cubes are put into plastic containers which are then populated with two freshly hatched Cydia pomonella (1st instar). The containers are then closed with a plastic cap. After 14 days incubation at 26° C. and 40-60% relative humidity, the survival rate of the caterpillars as well as their growth regulation is determined. In this test, compounds listed in Table P above show good activity. In particular compounds P.10, P.11, P.12, P.18, P.19, P.20, P.29, P.30, P.31, P.32, P.33, P.34, P.35, P.37, P.38, P.39, P.42, and P.43 show an activity of over 80% at a concentration of 400 ppm.

[6] = tested on: Frankliniella occidentalis (Western Flower Thrips); assay: Example B9: activity against Frankliniella occidentalis (bean leaf discs or bean plants); format: in vivo; details: foliar, 6 days (leaf discs) or 14 days (plants) after infestation
Method: Activity Against Frankliniella occidentalis (Western Flower Thrips)
Bean leaf discs on agar in petri dishes or bean plants in a spray chamber are treated with diluted test solutions. After drying leaf discs are cut and placed in plastic cups on the surface of an agar layer and infested with mixed population. 6 days (leaf discs) or 14 days (plants) after the infestation, samples are checked for reduction of treated population and compared to the non treated population.

[7] = tested on: Aphis craccivora (Pea Aphid); assay: Example B10: activity against Aphis craccivora, mixed population, contact/feeding; format: in vivo; details: 144 h, 6 days after treatment, spray (contact/feeding)
Text: (§1) Activity Against Aphis craccivora (Pea Aphid)
(Mixed Population, Contact/Feeding)
6 days after treatment, samples are checked for mortality.

[8] = tested on: Aphis craccivora (Pea Aphid); assay: Example B11: activity against Aphis craccivora, mixed population, systemic/feeding; format: in vivo; details: 144 h, 6 days, roots in test solution (systemic)
Text: as §1
(§2) (Mixed Population, Systemic/Feeding)
(§3) 6 days later, samples are checked for mortality.

[9] = tested on: Thrips tabaci (Onion Thrips); assay: Example B7: activity against Thrips tabaci, mixed population, feeding/residual contact, preventive; details: 144 h, read-out: activity
[10] = tested on: Myzus persicae (Green Peach Aphid); assay: Example B6: activity against Myzus persicae, mixed population, systemic/feeding, curative (pea seedling roots); details: 144 h, read-out: activity
[11] = tested on: Myzus persicae (Green Peach Aphid); assay: Example B5: activity against Myzus persicae, mixed population, feeding/residual contact, preventive (sunflower leaf discs); details: foliar, 144 h, read-out: activity
[12] = tested on: Aphis aossypii (Cotton Aphid); assay: Example B13: activity against cotton aphid, mixed population, systemic/feeding; format: in vivo; details: 144 h, 6 days, roots in test solution (systemic)
Text: Activity Against Aphis aossypii (Cotton Aphid)
as §2, §3

Measured: pest or weed control at 400 ppm

CC(C)NC(=O)c1c(NC(=O)c2cc(C(F)(F)F)nn2-c2ncccc2Cl)c(Cl)cc2cn[nH]c12 [P.10]
not listed: [12]
> 80%: all other assays above

O=C(NC1(C2CC2)CC1)c1c(NC(=O)c2cc(C(F)(F)F)nn2-c2ncccc2Cl)c(Cl)cc2cn[nH]c12 [P.12]
not listed: [7] | [8] | [12]
> 80%: all other assays above

O=C(NC1(C2CC2)CC1)c1c(NC(=O)c2cc(C(F)(F)F)nn2-c2ncccc2Cl)c(Br)cc2cn[nH]c12 [P.18]
not listed: [7] | [8] | [10] | [12]
> 80%: all other assays above

O=C(NCC1CC1)c1c(NC(=O)c2cc(C(F)(F)F)nn2-c2ncccc2Cl)c(Br)cc2cn[nH]c12 [P.19]
not listed: [7] | [8] | [9] | [12]
> 80%: all other assays above

COc1cc(C(=O)Nc2c(C)cc3cn[nH]c3c2C(=O)NC(C)C)n(-c2ncccc2Cl)n1 [P.27, 6-{[2-(3-chloro-pyridin-2-yl)-5-methoxy-2H-pyrazole-3-carbonyl]-amino}-5-methyl-1H-indazole-7-carboxylic acid isopropylamide]
not listed: [5]
> 80%: all other assays above

CSCC(C)(C)NC(=O)c1c(NC(=O)c2cc(C(F)(F)F)nn2-c2ncccc2Cl)c(Br)cc2cn[nH]c12 [P.33]
not listed: [7] | [12]
> 80%: all other assays above

CC(C)(CS(C)(=O)=O)NC(=O)c1c(NC(=O)c2cc(C(F)(F)F)nn2-c2ncccc2Cl)c(Br)cc2cn[nH]c12 [P.34]
not listed: [7] | [8] | [12]
> 80%: all other assays above

COc1cc(C(=O)Nc2c(Br)cc3cn[nH]c3c2C(=O)NC(C)C)n(-c2ncccc2Cl)n1 [P.35]
not listed: [7] | [8] | [12]
> 80%: all other assays above

CC(C)NC(=O)c1c(NC(=O)c2cc(C(F)F)nn2-c2ncccc2Cl)c(Cl)cc2cn[nH]c12 [P.39]
not listed: [7]
> 80%: all other assays above

COc1cc(C(=O)Nc2c(Cl)cc3cn[nH]c3c2C(=O)NC(C)C)n(-c2ncccc2Cl)n1 [P.40]
not listed: [4] | [5]
> 80%: all other assays above

O=C(NC1(C2CC2)CC1)c1c(NC(=O)c2cc(Br)nn2-c2ncccc2Cl)c(Cl)cc2cn[nH]c12 [P.46]
not listed: [5] | [12]
> 80%: all other assays above

Cc1cc2cn[nH]c2c(C(=O)NC2(C3CC3)CC2)c1NC(=O)c1cc(C(F)(F)F)nn1-c1ncccc1Cl [P.49]
not listed: [5] | [12]
> 80%: all other assays above

Cc1cc2cn[nH]c2c(C(=O)NC(C)C)c1NC(=O)c1cc(C(F)F)nn1-c1ncccc1Cl [P.56, 6-{[2-(3-chloro-pyridin-2-yl)-5-difluoromethyl-2H-pyrazole-3-carbonyl]-amino}-5-methyl-1H-indazole-7-carboxylic acid isopropylamide]
not listed: [4] | [5] | [7]
> 80%: all other assays above

COc1cc(C(=O)Nc2c(Cl)cc3cn[nH]c3c2C(=O)NC(C)(C)CS(C)(=O)=O)n(-c2ncccc2Cl)n1 [P.60]
not listed: [4] | [5] | [7] | [9]
> 80%: all other assays above

COc1cc(C(=O)Nc2c(Cl)cc3cn[nH]c3c2C(=O)NC2(C)CS(=O)(=O)C2)n(-c2ncccc2Cl)n1 [P.61, 5-chloro-6-{[2-(3-chloro-pyridin-2-yl)-5-methoxy-2H-pyrazole-3-carbonyl]-amino}-1H-indazole-7-carboxylic acid (3-methyl-1,1-dioxo-1lambda*6*-thietan-3-yl)-amide]
not listed: [4] | [5] | [7] | [9]
> 80%: all other assays above
